Results published in ChEMBL document CHEMBL1201862, “PubChem BioAssay data set” (2004).
Activity calls are given as the source filed them.

What was measured:
[1] = biological target: T1, Methionyl-tRNA synthetase, putative (Trypanosoma brucei brucei, UniProt Q38C91); type: functional, Trypanosoma brucei brucei strain 927/4 GUTat10.1
T1 sequence (Q38C91 whole entry): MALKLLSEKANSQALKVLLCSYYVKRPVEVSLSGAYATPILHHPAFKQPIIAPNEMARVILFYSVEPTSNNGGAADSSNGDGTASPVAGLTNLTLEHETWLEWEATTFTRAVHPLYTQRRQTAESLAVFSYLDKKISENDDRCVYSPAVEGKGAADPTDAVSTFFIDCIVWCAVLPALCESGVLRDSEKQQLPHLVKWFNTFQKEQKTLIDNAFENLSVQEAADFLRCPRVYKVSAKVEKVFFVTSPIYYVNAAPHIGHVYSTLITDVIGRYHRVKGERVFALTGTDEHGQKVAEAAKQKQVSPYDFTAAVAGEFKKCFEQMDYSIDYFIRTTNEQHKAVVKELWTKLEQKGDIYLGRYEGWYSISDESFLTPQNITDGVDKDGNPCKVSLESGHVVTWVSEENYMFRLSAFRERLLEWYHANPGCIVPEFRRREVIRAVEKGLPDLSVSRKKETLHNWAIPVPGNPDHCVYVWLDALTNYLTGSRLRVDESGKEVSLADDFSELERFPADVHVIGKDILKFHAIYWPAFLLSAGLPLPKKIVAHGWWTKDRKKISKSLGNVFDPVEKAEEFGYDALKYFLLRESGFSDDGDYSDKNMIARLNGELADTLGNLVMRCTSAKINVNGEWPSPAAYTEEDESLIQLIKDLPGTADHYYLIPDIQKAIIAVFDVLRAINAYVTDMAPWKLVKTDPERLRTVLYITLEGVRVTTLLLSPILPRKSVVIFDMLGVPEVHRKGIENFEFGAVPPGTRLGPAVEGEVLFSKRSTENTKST

[2] = Late stage counterscreen for inhibitors of Trypanosoma brucei methionyl tRNA synthetase (MetRS): Luminescence-based cell-based high throughput dose response assay to identify compounds that are cytotoxic to Jurkat human T lymphocyte cells.; type: functional
[3] = Counterscreen for inhibitors of Trypanosoma brucei methionyl tRNA synthetase (MetRS): Luminescence-based cell-based high throughput dose response assay to identify compounds that are cytotoxic to Jurkat human T lymphocyte cells.; type: functional
[4] = biological target: T1, Methionyl-tRNA synthetase, putative; type: functional, Trypanosoma brucei brucei strain 927/4 GUTat10.1; remark: listed apart in the source
[5] = biological target: Bifunctional protein GlmU (Mycobacterium tuberculosis, UniProt P9WMN3); experiment: Inhibitors of Mycobacterial Glucosamine-1-phosphate acetyl transferase (GlmU). Secondary screen.; parameters: species or system Mycobacterium tuberculosis H37Rv
Sequence of Bifunctional protein GlmU (P9WMN3 whole entry): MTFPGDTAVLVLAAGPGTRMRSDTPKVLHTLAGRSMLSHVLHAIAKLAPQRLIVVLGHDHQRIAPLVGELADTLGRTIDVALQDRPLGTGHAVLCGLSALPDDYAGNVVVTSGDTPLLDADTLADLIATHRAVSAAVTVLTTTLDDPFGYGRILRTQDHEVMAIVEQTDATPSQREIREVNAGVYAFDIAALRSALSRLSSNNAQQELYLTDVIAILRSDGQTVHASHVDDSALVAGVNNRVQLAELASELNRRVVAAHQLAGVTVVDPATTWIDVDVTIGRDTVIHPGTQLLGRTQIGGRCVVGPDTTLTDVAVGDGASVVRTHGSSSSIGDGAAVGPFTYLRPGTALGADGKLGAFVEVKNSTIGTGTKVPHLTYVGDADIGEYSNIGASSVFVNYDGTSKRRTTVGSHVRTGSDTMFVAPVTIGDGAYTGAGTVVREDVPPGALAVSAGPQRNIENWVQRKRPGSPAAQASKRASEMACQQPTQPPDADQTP

fMet-Leu-Phe receptor = fMet-Leu-Phe receptor (Homo sapiens, UniProt P21462); experiment: formyl peptide receptor binders – dose response (AID 519); type: functional
Sequence of fMet-Leu-Phe receptor (P21462 whole entry): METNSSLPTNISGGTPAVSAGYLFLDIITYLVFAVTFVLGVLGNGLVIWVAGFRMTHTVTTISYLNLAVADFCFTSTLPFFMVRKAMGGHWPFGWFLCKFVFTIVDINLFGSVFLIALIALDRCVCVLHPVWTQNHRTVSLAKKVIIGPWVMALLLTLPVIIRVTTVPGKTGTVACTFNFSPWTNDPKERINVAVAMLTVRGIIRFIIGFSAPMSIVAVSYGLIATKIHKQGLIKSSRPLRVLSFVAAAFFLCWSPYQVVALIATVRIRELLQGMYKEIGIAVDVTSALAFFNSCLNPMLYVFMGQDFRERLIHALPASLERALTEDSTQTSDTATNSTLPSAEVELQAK

[6] = HGIII-sPLA2 enzyme inhibition potency – biochemical, QFRET, IC50, dose response (AID 743457);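 note: green fluorescence rise as the enzyme cleaves BODIPY PC-A2 in liposomes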
[7] = biological target: E3 ubiquitin-protein ligase Mdm2 (Homo sapiens, UniProt Q00987); experiment: MDM2-luc reporter signal enhancers, multi-concentration potency testing, MDM2 ubiquitin-protein ligase inhibitor program, whole-cell format, luminescence detection, 384-well microplate (AID 1394); type: functional;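 note: MDM2 E3 inhibitors raise luminescence so EC50 is for signal enhancement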
Sequence of E3 ubiquitin-protein ligase Mdm2 (Q00987 whole entry): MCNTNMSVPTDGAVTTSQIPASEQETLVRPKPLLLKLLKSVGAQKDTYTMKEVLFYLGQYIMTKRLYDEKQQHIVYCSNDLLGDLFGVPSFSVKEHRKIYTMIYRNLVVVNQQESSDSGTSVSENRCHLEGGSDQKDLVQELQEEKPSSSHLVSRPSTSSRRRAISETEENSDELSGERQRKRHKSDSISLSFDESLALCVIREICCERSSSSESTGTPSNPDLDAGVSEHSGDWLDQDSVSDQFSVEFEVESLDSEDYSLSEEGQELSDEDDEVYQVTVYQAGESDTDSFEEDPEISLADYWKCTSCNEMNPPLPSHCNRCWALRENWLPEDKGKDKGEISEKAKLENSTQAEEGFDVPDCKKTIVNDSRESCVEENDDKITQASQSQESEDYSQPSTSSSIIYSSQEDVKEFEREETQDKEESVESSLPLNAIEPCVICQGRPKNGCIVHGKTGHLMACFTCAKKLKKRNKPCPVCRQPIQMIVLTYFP

cells [8] = type: functional, cell-based
[9] = biological target: T2, Trace amine-associated receptor 1 (Homo sapiens, UniProt Q96RJ0); experiment: Counterscreen for agonists of the human trace amine associated receptor 1 (hTAAR1): Fluorescence-based cell-based high throughput dose response assay to identify hTAAR1 agonist that also desensitize TAAR1 receptor response.; type: functional
T2 sequence (Q96RJ0 whole entry): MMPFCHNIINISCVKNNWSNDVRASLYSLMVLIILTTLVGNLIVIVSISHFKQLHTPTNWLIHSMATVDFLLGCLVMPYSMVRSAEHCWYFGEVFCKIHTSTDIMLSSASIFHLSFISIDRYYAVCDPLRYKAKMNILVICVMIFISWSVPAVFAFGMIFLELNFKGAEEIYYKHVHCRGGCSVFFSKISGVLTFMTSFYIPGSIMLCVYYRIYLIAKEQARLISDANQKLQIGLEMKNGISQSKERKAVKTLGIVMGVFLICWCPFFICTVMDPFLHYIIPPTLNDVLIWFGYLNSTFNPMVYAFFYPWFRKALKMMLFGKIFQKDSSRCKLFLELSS

cells [10] = type: functional, cell-based; remark: listed apart in the source
[11] = biological target: T2, Trace amine-associated receptor 1; experiment: Fluorescence-based cell-based high throughput dose response assay to identify agonists of the human trace amine associated receptor 1 (TAAR1).; type: functional
Bcl-2-related protein A1 [12] = biological target: T3, Bcl-2-related protein A1 (Mus musculus, UniProt Q07440); experiment: small-molecule antagonists of Bfl-1/BH3 interaction – biochemical, TR-FRET, mouse Bfl-1, confirmation (AID 621);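 note: TR-FRET binding of GST-Bfl-1 to FITC-labelled Bid peptide via terbium antibody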
T3 sequence (Q07440 whole entry): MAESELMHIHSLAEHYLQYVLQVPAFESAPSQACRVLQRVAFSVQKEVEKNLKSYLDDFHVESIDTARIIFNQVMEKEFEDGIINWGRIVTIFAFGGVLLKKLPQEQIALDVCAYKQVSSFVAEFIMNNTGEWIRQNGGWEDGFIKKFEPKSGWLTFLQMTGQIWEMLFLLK

Bcl-2-related protein A1 [13] = biological target: T3, Bcl-2-related protein A1; experiment: Bfl-1 binding inhibitors, SAR follow-up, biochemical, fluorescence polarization (AID 1070)
[14] = biological target: Glyceraldehyde-3-phosphate dehydrogenase (Homo sapiens, UniProt P04406)
Sequence of Glyceraldehyde-3-phosphate dehydrogenase (P04406 whole entry): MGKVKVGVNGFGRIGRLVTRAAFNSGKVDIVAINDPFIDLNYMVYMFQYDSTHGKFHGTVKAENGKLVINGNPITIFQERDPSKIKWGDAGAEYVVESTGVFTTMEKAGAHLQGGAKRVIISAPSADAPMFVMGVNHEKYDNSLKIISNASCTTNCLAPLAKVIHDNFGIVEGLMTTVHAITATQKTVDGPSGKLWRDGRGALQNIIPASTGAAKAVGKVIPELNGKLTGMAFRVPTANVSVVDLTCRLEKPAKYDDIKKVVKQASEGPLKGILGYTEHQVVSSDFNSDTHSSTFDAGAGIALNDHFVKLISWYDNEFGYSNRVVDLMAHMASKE

[15] = inhibition of ADAM10 peptide cleavage – biochemical, FRET peptide substrate, recombinant human ADAM10, selectivity assay for ADAM17 exosite inhibitor project, dose response (AID 743259);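 note: ADAM10 enzyme cleaving a FRET peptide substrate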
[16] = potency of ADAM10 substrate cleavage blockers – biochemical, QFRET, dose response (AID 743254);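 note: ADAM10 enzyme with the DM2 quenched FRET peptide as substrate; EDANS fluorescence gain as the protease cuts the substrate; inhibitor potency against ADAM10 proteolytic activity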
[17] = biological target: T4, Disintegrin and metalloproteinase domain-containing protein 17 (Homo sapiens, UniProt P78536); experiment: inhibition of ADAM17 substrate cleavage – biochemical, quenched FRET substrate, counter-screen for ADAM10 exosite inhibitor project, dose response (AID 743253)
T4 sequence (P78536 whole entry, the tested form may be a part): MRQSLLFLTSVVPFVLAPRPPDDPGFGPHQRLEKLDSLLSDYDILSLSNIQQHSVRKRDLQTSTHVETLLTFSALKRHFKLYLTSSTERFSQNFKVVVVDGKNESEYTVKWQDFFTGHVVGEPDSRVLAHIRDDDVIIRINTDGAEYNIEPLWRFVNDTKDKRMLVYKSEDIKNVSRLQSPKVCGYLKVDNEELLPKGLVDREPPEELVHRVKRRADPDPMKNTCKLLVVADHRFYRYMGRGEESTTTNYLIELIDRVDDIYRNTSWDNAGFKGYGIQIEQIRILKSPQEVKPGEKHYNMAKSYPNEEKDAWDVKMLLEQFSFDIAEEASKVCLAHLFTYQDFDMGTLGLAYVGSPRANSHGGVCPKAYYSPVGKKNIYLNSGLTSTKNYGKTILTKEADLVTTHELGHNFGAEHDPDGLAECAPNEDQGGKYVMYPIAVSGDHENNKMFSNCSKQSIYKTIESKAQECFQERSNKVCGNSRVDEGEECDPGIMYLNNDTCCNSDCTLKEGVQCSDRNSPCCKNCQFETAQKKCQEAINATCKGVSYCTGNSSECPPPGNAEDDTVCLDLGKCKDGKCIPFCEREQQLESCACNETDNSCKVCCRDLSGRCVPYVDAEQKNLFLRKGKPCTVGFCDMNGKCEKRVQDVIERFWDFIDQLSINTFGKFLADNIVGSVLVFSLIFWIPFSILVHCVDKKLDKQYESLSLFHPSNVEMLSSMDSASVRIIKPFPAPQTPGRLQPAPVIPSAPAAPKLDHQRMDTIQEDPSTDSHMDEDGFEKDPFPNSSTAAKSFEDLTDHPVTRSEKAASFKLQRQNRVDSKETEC

[18] = biological target: T4, Disintegrin and metalloproteinase domain-containing protein 17; experiment: exosite inhibitors of ADAM17, dose response, biochemical (AID 743260)

Question: Which results are given for `O=C(NCc1nc2ccccc2[nH]1)C1=C[C@@H](c2ccc(Br)cc2)C[C@@H](OCc2ccc(CO)cc2)O1`?
Answer: IC50 [1]: 0.498 µM (active); IC50 [2]: 66.6 µM (inactive); IC50 [3]: 33.7 µM (inactive); IC50 [4]: 1.33 µM (active)

Question: With `O=C1C(Cl)=C(Nc2ccccc2O)C(=O)N1CCc1ccccc1` as the compound, how does the IC50 [5] read?
Answer: The IC50 was 85.3 µM (active).

Question: For `COc1ccc(C(=O)C2=C(O)C(=O)N(CCN3CCOCC3)C2c2ccc(C)cc2)cc1` (configuration not stated), which Ki (fMet-Leu-Phe receptor) is on record?
Answer: The Ki was > 66.7 µM (inactive).

Question: For `Cn1cccc1CC(=O)NN=C(S)Nc1ccccc1Cl`, which IC50 [6] is on record?
Answer: The IC50 was > 122 µM (inactive).

Question: Which EC50 [7] does the source give for `OC(c1nnc(-c2ccccc2)o1)c1cccs1` (configuration not stated) here?
Answer: The EC50 was 441 µM (not active).

Question: What does the source list for `CC(=O)c1ccc(NC(=O)Nc2ccccc2)cc1`?
Answer: EC50 (cells [8]): > 29.9 µM (inactive); IC50 [9]: > 3.32 µM (active); IC50 (cells [10]): 29.8 µM (inactive); EC50 [11]: 3.14 µM (active)

Question: With `O=C1C(Cl)=C(N2CCOCC2)C(=O)N1c1ccc(Cl)cc1Cl` as the compound, how does the IC50 (Bcl-2-related protein A1 [12]) read?
Answer: Its IC50 is > 100 µM (not active).

Question: What about the IC50 (Bcl-2-related protein A1 [13]) of the same compound?
Answer: Its IC50 is > 100 µM (not active).

Question: And the IC50 [14]?
Answer: Its IC50 is > 10 µM (inconclusive).

Question: With `CCOc1ccc(NC(=S)NCCCN2CCOCC2)cc1` as the compound, how does the EC50 [7] read?
Answer: The EC50 was 1.95 µM (not active).

Question: With `O=C(CSc1ccc(Cl)cc1Cl)N1CCC(c2nc3ccccc3s2)CC1` as the compound, how does the IC50 [15] read?
Answer: Its IC50 is 18.8 µM (inactive).

Question: What about the IC50 [16] of the same compound?
Answer: The IC50 was 22.1 µM (inactive).

Question: And the IC50 [17]?
Answer: Its IC50 is > 69.5 µM (inactive).

Question: What about the IC50 [18] of the same compound?
Answer: Its IC50 is > 69.5 µM (inactive).

Question: With `C=CCC[C@@H](Cc1ccc(F)cc1)C(=O)OC[C@@H](NC(=O)[C@H](CC=C)CC(=O)N(CCO)Cc1ccccc1)c1ccccc1` as the compound, how does the IC50 [16] read?
Answer: The IC50 was 27.4 µM (inactive).

Question: And the IC50 [17]?
Answer: Its IC50 is > 69.5 µM (inactive).
